According to patent publication US9284300B2, “Pyridazinone derivatives” (Merck Patent GmbH, priority 2007, dated 2016):

Legend:
Met kinase [1] = biological target: T1, Met kinase (Homo sapiens, UniProt P08581); test: Met kinase inhibition, cell assay; assay type: cell-based
Target sequence in this assay (P08581 25-1390): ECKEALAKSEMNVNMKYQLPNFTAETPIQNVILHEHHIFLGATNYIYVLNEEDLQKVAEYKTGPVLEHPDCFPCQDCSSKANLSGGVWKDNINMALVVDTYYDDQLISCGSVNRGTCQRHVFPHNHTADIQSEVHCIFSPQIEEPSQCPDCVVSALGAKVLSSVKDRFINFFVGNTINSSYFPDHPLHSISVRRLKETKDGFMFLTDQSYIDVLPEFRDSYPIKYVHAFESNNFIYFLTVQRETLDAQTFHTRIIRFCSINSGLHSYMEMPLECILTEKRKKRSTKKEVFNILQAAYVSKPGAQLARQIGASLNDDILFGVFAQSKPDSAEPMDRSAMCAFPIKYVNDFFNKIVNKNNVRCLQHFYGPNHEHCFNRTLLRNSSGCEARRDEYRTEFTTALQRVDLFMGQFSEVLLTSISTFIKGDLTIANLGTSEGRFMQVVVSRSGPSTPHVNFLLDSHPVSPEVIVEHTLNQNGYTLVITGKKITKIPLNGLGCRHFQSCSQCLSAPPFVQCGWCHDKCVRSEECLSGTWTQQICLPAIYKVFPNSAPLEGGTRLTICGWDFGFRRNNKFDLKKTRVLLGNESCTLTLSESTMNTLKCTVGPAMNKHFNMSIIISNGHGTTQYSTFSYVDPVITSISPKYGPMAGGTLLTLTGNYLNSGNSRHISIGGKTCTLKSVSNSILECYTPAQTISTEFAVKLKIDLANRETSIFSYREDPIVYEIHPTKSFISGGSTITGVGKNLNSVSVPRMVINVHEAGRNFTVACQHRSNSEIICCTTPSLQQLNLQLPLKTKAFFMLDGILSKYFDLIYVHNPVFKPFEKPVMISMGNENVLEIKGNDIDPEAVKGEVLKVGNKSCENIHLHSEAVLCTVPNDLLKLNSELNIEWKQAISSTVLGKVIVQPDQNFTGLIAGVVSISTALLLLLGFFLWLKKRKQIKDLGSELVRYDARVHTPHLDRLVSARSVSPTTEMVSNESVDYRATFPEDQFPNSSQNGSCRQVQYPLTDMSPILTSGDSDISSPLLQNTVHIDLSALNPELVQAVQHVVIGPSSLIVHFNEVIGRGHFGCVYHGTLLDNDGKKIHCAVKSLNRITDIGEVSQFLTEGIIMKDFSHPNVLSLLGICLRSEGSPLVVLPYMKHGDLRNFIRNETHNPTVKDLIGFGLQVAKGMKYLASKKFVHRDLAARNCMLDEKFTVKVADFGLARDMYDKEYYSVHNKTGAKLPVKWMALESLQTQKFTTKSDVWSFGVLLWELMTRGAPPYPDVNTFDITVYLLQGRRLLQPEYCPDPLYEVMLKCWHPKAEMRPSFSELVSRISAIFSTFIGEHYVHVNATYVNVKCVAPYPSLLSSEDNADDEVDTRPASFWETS

Met kinase [2] = biological target: T1, Met kinase; test: Flashplate method (Met kinase); assay type: biochemical; parameters: 6His (N); purchased Upstate 14-526; host or cells: Sf21 insect cells (S. frugiperda), baculovirus; conditions: Met kinase inhibition, enzyme assay
Method: The test plates used are 96-well Flashplate^R microtitre plates from Perkin Elmer (Cat. No. SMP200).
The full value used is the inhibitor-free kinase reaction. This should be approximately in the range 6000-9000 cpm. The pharmacological zero value used is staurosporin in a final concentration of 0.1 mM. The inhibitory values (IC50) are determined using the RS1_MTS program.
Kinase reaction conditions per well: • 30 μl of assay buffer • 10 μl of substance to be tested in assay buffer with 10% of DMSO • 10 μl of ATP (final concentration 1 μM cold, 0.35 μCi of ^33P-ATP) • 50 μl of Met kinase/substrate mixture in assay buffer; (10 ng of enzyme/well, 50 ng of pAGLT/well)
Target sequence in this assay (P08581 974-1390 limits assumed): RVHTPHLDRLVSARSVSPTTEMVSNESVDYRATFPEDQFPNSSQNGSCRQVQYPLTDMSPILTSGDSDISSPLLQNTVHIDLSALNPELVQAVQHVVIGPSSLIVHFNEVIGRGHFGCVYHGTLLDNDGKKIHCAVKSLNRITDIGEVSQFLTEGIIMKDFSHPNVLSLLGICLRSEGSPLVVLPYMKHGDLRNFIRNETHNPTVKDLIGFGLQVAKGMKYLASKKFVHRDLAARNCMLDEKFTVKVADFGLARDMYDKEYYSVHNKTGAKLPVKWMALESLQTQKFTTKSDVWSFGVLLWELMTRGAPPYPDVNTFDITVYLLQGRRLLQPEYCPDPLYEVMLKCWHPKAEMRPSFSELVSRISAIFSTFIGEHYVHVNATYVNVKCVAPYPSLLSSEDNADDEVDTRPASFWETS

TPR-Met/NIH3T3 cells = test: In-vivo tests: tumour volume, TPR-Met/NIH3T3 cells injected subcutaneously in Balb/C mice; conditions: female Balb/C mice, s.c. TPR-Met/NIH3T3 tumour, 200 mg/kg daily by gastric tube, 9 days
Method: They were acclimatised to our keeping conditions for 7 days. Each mouse was subsequently injected subcutaneously in the pelvic area with 4 million TPR-Met/NIH3T3 cells in 100 μl of PBS (without Ca++ and Mg++).

Structure (SMILES)	IC50 (Met kinase [1])	IC50 (Met kinase [2])	antitumoural action (tumour volume) (TPR-Met/NIH3T3 cells)
CN1CCN(Cc2cnc(-c3cccc(Cn4nc(-c5cc(F)cc(F)c5)ccc4=O)c3)nc2)CC1 [A14, 6-(3,5-difluorophenyl)-2-{3-[5-(4-methylpiperazin-1-yl-methyl)pyrimidin-2-yl]benzyl}-2H-pyridazin-3-one]	0.001 to 1 µM	–	–
CN1CCC(Oc2cnc(-c3cccc(Cn4nc(-c5cc(F)cc(F)c5)ccc4=O)c3)nc2)CC1 [A23, 6-(3,5-difluorophenyl)-2-{3-[5-(1-methylpiperidin-4-yloxy)pyrimidin-2-yl]benzyl}-2H-pyridazin-3-one]	0.001 to 1 µM	–	–
Cc1cnc(-c2cccc(Cn3nc(-c4cccc(C#N)c4)ccc3=O)c2)nc1 [A15, 3-{1-[3-(5-methylpyrimidin-2-yl)benzyl]-6-oxo-1,6-dihydropyridazin-3-yl}benzonitrile]	0.001 to 1 µM	–	–
CN(C)C=Nc1cnc(-c2cccc(Cn3nc(-c4cc(F)cc(F)c4)ccc3=O)c2)nc1 [A16, N′-(2-{3-[3-(3,5-difluorophenyl)-6-oxo-6H-pyridazin-1-ylmethyl]phenyl}-pyrimidin-5-yl)-N,N-dimethylformamidine]	0.001 to 1 µM	–	–
O=C1OCCCN1c1cccc(Cn2nc(-c3cc(F)cc(F)c3)ccc2=O)c1 [A6, 3-{3-[3-(3,5-difluorophenyl)-6-oxo-6H-pyridazin-1-ylmethyl]phenyl}-1,3-oxazinan-2-one]	–	0.001 to 1 µM	–
Cc1cnc(-c2cccc(Cn3nc(-c4cc(F)c(F)c(F)c4)ccc3=O)c2)nc1 [A1, 2-[3-(5-methylpyrimidin-2-yl)benzyl]-6-(3,4,5-trifluorophenyl)-2H-pyridazin-3-one]	0.001 to 1 µM	0.001 to 1 µM	–
Cc1ccc(=O)n(-c2cccc(Cn3nc(-c4cc(F)cc(F)c4)ccc3=O)c2)n1 [A8, 1-{3-[3-(3,5-difluorophenyl)-6-oxo-6H-pyridazin-1-yl-methyl]phenyl}-3-methyl-6H-pyridazin-6-one]	–	0.001 to 1 µM	–
O=c1ccc(-c2cc(F)cc(F)c2)nn1Cc1cccc(-c2nccc(N3CCNCC3)n2)c1 [A13, 6-(3,5-difluorophenyl)-2-[3-(4-piperazin-1-ylpyrimidin-2-yl)benzyl]-2H-pyridazin-3-one]	1 to 10 µM	–	–
Nc1cnc(-c2cccc(Cn3nc(-c4cc(F)cc(F)c4)ccc3=O)c2)nc1 [A17, 2-[3-(5-aminopyrimidin-2-yl)benzyl]-6-(3,5-difluorophenyl)-2H-pyridazin-3-one]	0.001 to 1 µM	–	–
CN1CCN(c2cnc(-c3cccc(Cn4nc(-c5cc(F)cc(F)c5)ccc4=O)c3)nc2)CC1 [A18, 6-(3,5-difluorophenyl)-2-{3-[5-(4-methylpiperazin-1-yl)pyrimidin-2-yl]-benzyl}-2H-pyridazin-3-one]	0.001 to 1 µM	–	significant antitumoural action
O=c1ccc(-c2cc(F)cc(F)c2)nn1Cc1cccc(-c2ncc(N3CCNCC3)cn2)c1 [A19, 6-(3,5-difluorophenyl)-2-[3-(5-piperazin-1-ylpyrimidin-2-yl)benzyl]-2H-pyridazin-3-one]	0.001 to 1 µM	–	–
CN1CCN(c2cnc(-c3cccc(Cn4nc(-c5cc(F)c(F)c(F)c5)ccc4=O)c3)nc2)CC1 [A20, 2-{3-[5-(4-methylpiperazin-1-yl)pyrimidin-2-yl]benzyl}-6-(3,4,5-trifluorophenyl)-2H-pyridazin-3-one]	0.001 to 1 µM	–	–

The next lines start with results.

IC50 (Met kinase [1])	IC50 (Met kinase [2])	Structure (SMILES)	antitumoural action (tumour volume) (TPR-Met/NIH3T3 cells)
0.001 to 1 µM	–	O=c1ccc(-c2cc(F)cc(F)c2)nn1Cc1cccc(-c2ncc(Br)cn2)c1 [A25, 2-[3-(5-bromopyrimidin-2-yl)benzyl]-6-(3,5-difluorophenyl)-2H-pyridazin-3-one]	–
0.001 to 1 µM	–	CN(C)CCCCNC(=O)c1cnc(-c2cccc(Cn3nc(-c4cc(F)c(F)c(F)c4)ccc3=O)c2)nc1 [A35]	–
0.001 to 1 µM	–	CN1CCN(CCOc2cnc(-c3cccc(Cn4nc(-c5cc(F)cc(F)c5)ccc4=O)c3)nc2)CC1 [A57]	–
0.001 to 1 µM	–	N#Cc1cccc(-c2ccc(=O)n(Cc3cccc(-c4ncc(-c5cnn(CCN6CCCC6)c5)cn4)c3)n2)c1 [A168, 3-[6-oxo-1-(3-{5-[1-(2-pyrrolidin-1-ylethyl)-1H-pyrazol-4-yl]pyrimidin-2-yl}benzyl)-1,6-dihydropyridazin-3-yl]-benzonitrile]	–
0.001 to 1 µM	–	N#Cc1cccc(-c2ccc(=O)n(Cc3cccc(-c4ncc(N5CCNCC5)cn4)c3)n2)c1 [A288, 3-{6-oxo-1-[3-(5-piperazin-1-ylpyrimidin-2-yl)benzyl]-1,6-dihydropyridazin-3-yl}benzonitrile]	–
0.001 to 1 µM	–	CN(C)CCOc1cnc(-c2cccc(Cn3nc(-c4cc(F)cc(F)c4)ccc3=O)c2)nc1 [A64, 2-{3-[5-(2-dimethylaminoethoxy)pyrimidin-2-yl]benzyl}-6-(3,5-difluorophenyl)-2H-pyridazin-3-one]	–
0.001 to 1 µM	–	CN1CCC(COc2cnc(-c3cccc(Cn4nc(-c5cnn(C)c5)ccc4=O)c3)nc2)CC1 [A237, 2-{3-[5-(1-methylpiperidin-4-ylmethoxy)pyrimidin-2-yl]-benzyl}-6-(1-methyl-1H-pyrazol-4-yl)-2H-pyridazin-3-one]	–
0.001 to 1 µM	–	O=c1ccc(-c2cc(F)cc(F)c2)nn1Cc1cccc(-c2ncc(-c3cnn(C4CCNCC4)c3)cn2)c1 [A63]	–
0.001 to 1 µM	–	O=c1ccc(-c2cc(F)cc(F)c2)nn1Cc1cccc(-c2ncc(OC3CCNCC3)cn2)c1 [A102, 6-(3,5-difluorophenyl)-2-{3-[5-(piperidin-4-yloxy)pyrimidin-2-yl]benzyl}-2H-pyridazin-3-one]	–
0.001 to 1 µM	–	CN(C)CCCOc1cnc(-c2cccc(Cn3nc(-c4cnn(C)c4)ccc3=O)c2)nc1 [A209, 2-{3-[5-(3-dimethylaminopropoxy)pyrimidin-2-yl]-benzyl}-6-(1-methyl-1H-pyrazol-4-yl)-2H-pyridazin-3-one]	–
0.001 to 1 µM	–	CN1CCN(c2cnc(-c3cccc(Cn4nc(-c5cccc(C#N)c5)ccc4=O)c3)nc2)CC1 [A287, 3-(1-{3-[5-(4-methylpiperazin-1-yl)pyrimidin-2-yl]benzyl}-6-oxo-1,6-dihydropyridazin-3-yl)benzonitrile]	–
0.001 to 1 µM	–	Cn1cc(-c2ccc(=O)n(Cc3cccc(-c4ncc(-c5cnn(CCN6CCCC6)c5)cn4)c3)n2)cn1 [A169]	–
0.001 to 1 µM	–	Cc1cnc(-c2cccc(Cn3nc(-c4ccc5nsnc5c4)ccc3=O)c2)nc1 [A79]	–
0.001 to 1 µM	–	CN1CCC(COc2cnc(-c3cccc(Cn4nc(-c5cc(F)cc(F)c5)ccc4=O)c3)nc2)CC1 [A66]	–
0.001 to 1 µM	–	Cn1cc(-c2cnc(-c3cccc(Cn4nc(-c5cc(F)cc(F)c5)ccc4=O)c3)nc2)cn1 [A26, 6-(3,5-difluorophenyl)-2-{3-[5-(1-methyl-1H-pyrazol-4-yl)pyrimidin-2-yl]benzyl}-2H-pyridazin-3-one]	–
0.001 to 1 µM	–	CN1CCC(Oc2cnc(-c3cccc(Cn4nc(-c5cnn(C)c5)ccc4=O)c3)nc2)CC1 [A226, 2-{3-[5-(1-methylpiperidin-4-yloxy)pyrimidin-2-yl]-benzyl}-6-(1-methyl-1H-pyrazol-4-yl)-2H-pyridazin-3-one]	–
